In patent publication US6417235B2, “Method and use of α-amino-β-mercapto-ethane derivatives as dicarbonyl scavengers for treatment of conditions resulting from protein, lipid, and DNA damage” (University of Kentucky Research Foundation, priority 2000, dated 2002):

Tested on: glycation of histone H1 by ADP-ribose
Experiment: Screening of inhibitors of nonoxidative advanced glycation: AGE-fluorescence on 96 well-microtiter plate
Assay type: biochemical, calf
Settings: (± SEM, n = 2); for AGE-fluorescence (day 5): complete reaction under air
Experimental: All operations were carried out at 4° C. Chromatin was isolated from fresh calf thymus by extraction with 0.14 M NaCl, 0.05 M Na2S2O5, as described earlier in Wondrak supra. After repeated extraction with 5% HCl)4 and centrifugation (1500 g), histone H1 was precipitated from the supernatant by addition of TCA (20% final concentration v/v). The histone H1 precipitate was colleted by centrifugation (12,000 g) and deionized water. After extensive dialysis (MW cut-off: 12,000-14,000) against water for 48 h, the sample was lyophilized and the protein was stored at 4° C. SDS-PAGE (12%) was used to analyze the purity of the preparation.
Earlier studies have reported that D-penicillamine inhibits collagen crosslinking and AGE fluorescence caused by sugars (McPherson, J. D., Shilton, B. H., and Walton, D. J. 1988. Role of Fructose in Glycation and Cross-Linking of Proteins. Biochemistry 27, 1901-1907) and reaction of D-penicillamine with aldehyde groups of proteins (Deshmukh, K., and Nimm, M. E. 1969. A Defect in the Intramolecular and Intermolecular Cross-linking of Collagen caused by Penicillamine. J. Biol. Chem. 244, 1787-1795). A number of different penicillamines and penicillamine derivatives were tested to determine the inhibition of AGE-fluorescence on histone H1 at physiological pH. The reaction conditions for the glycation of histone H1 by ADP-ribose mimic physiological conditions to the extent possible. Reaction mixtures contain 1.5 mg/ml histone Hl, 1.0 mM ADP-ribose, 50 mM potassium phosphate buffer, pH 7.4, 37° C. D,L-penicillamine; L-penicillamine; D-penicllamine; D-penicillaminedisulfide and N,S- isopropylidine-D-penicillamine were tested in concentrations of 1,5 and 10 mM. The detected reaction parameter representing the accumulation of protein damage is AGE-fluorescence ((λex=[…]), which is suppressed by the presence of a compound with inhibitory activity. Generation of AGE-type fluorescence (λex=355 nm; λem=405 nm) was monitored over time at 37° C; which is in the range of the broad excitation/emission maxima of AGE compounds. To allow high throughput sample processing on 96 well microtiter plates, the reaction volumes are 300 μl. Fluorescence on the 96-well microtiter plates was measured using an automated microtiter fluorescence reader. Fluorescence of the 1 ml samples of the glycation reaction mixtures was measured using a Hitachi F-200 fluorescence spectophotometer, and prior to measurement the protein sample is dialyzed extensively against water (MW cutoff=[…]), lyophilized and reconstituted in reaction buffer. For inhibitor screening the plate is read on a Fluoroskan II plate reader (Titertek, ICN) at the excitation/emission wavelengths set forth above at a bandwidth of 35 nm.
The following screening scheme is used (see Table 1): AGE-fluorescence is determined at the beginning and after five days of incubation. Test compounds that are inherently fluorescent (designated false negatives) were identified by the initial fluorescence measurement (See Table 1, NADH for example). Since these are compounds of uncertain activity, they are diverted directly to the second stage of the screen. Aminoguanidine, a known glycation inhibitory agent, was used as a positive control for suppression of the increase on AGE-fluorescence. After five days incubation and plate reading, fluorescence quenchers (designated false positives) are excluded by measuring the quenching activity of the test compound by addition of AGE modified protein having known fluorescence activity to one microtiter plate well containing test compound in the complete reaction mixture. For this, AGE-BSA is used as the AGE-type fluorescence standard. This AGE-BSA test excludes false positives compounds that function by fluorescence quenching. If fluorescence quenching occurs the test compound is excluded from further screening. […] The protein is visualized by silver staining of the gel. […]

Compound: CC(C)(S)[C@@H](N)C(=O)O [D-Penicillamine]
- AGE-fluorescence (day 0) (compound 1 mM): 1.2 (0.0) relative units
- AGE-fluorescence (day 5) (compound 1 mM): 11 (0.6) relative units
- AGE-fluorescence (day 0) (compound 5 mM): 1.1 (0.1) relative units
- AGE-fluorescence (day 5) (compound 5 mM): 2.9 (0.3) relative units
- AGE-fluorescence (day 0) (compound 10 mM): 1.1 (0.0) relative units
- AGE-fluorescence (day 5) (compound 10 mM): 1.4 (0.1) relative units
